Measurements published in PubChem BioAssay (NCI).
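Following 48 hours of exposure in 96-well plates, responses at five concentrations were used to interpolate endpoints linearly. The concentration for 50% growth inhibition is given as GI50. TGI: total growth inhibition.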

Key:
Assay in all cases: DTP human tumour cell line panel, 48 h
786-0 renal = tested on: 786-0 renal
A498 renal = tested on: A498 renal
A549 NSCLC = tested on: A549 NSCLC
ACHN renal = tested on: ACHN renal
BT-549 breast = tested on: BT-549 breast
CAKI-1 renal = tested on: CAKI-1 renal
CCRF-CEM leukemia = tested on: CCRF-CEM leukemia
COLO 205 colon = tested on: COLO 205 colon
DU-145 prostate = tested on: DU-145 prostate
EKVX NSCLC = tested on: EKVX NSCLC
HCC-2998 colon = tested on: HCC-2998 colon
HCT-116 colon = tested on: HCT-116 colon
HCT-15 colon = tested on: HCT-15 colon
HL-60(TB) leukemia = tested on: HL-60(TB) leukemia
HOP-62 NSCLC = tested on: HOP-62 NSCLC
HOP-92 NSCLC = tested on: HOP-92 NSCLC
HS 578T breast = tested on: HS 578T breast
HT29 colon = tested on: HT29 colon
IGROV1 ovarian = tested on: IGROV1 ovarian
K-562 leukemia = tested on: K-562 leukemia
KM12 colon = tested on: KM12 colon
LOX IMVI melanoma = tested on: LOX IMVI melanoma
M14 melanoma = tested on: M14 melanoma
MALME-3M melanoma = tested on: MALME-3M melanoma
MCF7 breast = tested on: MCF7 breast
MDA-MB-231 breast = tested on: MDA-MB-231 breast
MDA-MB-435 = tested on: MDA-MB-435
MOLT-4 leukemia = tested on: MOLT-4 leukemia
NCI-H226 lung = tested on: NCI-H226 lung
NCI-H23 lung = tested on: NCI-H23 lung
NCI-H460 lung = tested on: NCI-H460 lung
NCI-H522 lung = tested on: NCI-H522 lung
NCI/ADR-RES ovarian = tested on: NCI/ADR-RES ovarian
OVCAR-3 ovarian = tested on: OVCAR-3 ovarian
OVCAR-4 ovarian = tested on: OVCAR-4 ovarian
OVCAR-5 ovarian = tested on: OVCAR-5 ovarian
OVCAR-8 ovarian = tested on: OVCAR-8 ovarian
PC-3 prostate = tested on: PC-3 prostate
RPMI-8226 leukemia = tested on: RPMI-8226 leukemia
RXF 393 renal = tested on: RXF 393 renal
SF-268 CNS = tested on: SF-268 CNS
SF-295 CNS = tested on: SF-295 CNS
SF-539 CNS = tested on: SF-539 CNS
SK-MEL-2 melanoma = tested on: SK-MEL-2 melanoma
SK-MEL-28 melanoma = tested on: SK-MEL-28 melanoma
SK-MEL-5 melanoma = tested on: SK-MEL-5 melanoma
SK-OV-3 ovarian = tested on: SK-OV-3 ovarian
SN12C renal = tested on: SN12C renal
SNB-19 CNS = tested on: SNB-19 CNS
SNB-75 CNS = tested on: SNB-75 CNS
SR leukemia = tested on: SR leukemia
SW-620 colon = tested on: SW-620 colon
T-47D breast = tested on: T-47D breast
TK-10 renal = tested on: TK-10 renal
U251 CNS = tested on: U251 CNS
UACC-257 melanoma = tested on: UACC-257 melanoma
UACC-62 melanoma = tested on: UACC-62 melanoma
UO-31 renal = tested on: UO-31 renal

OCc1cn(Cc2ccc(Cl)cc2)c2ccccc12 showed a GI50 (786-0 renal) of 2.51 µM, a TGI (786-0 renal) of 21.2 µM and a GI50 (A498 renal) of 0.0115 µM. It also gave a TGI (A498 renal) of 0.0323 µM, a GI50 (A549 NSCLC) of 2.64 µM and a TGI (A549 NSCLC) of 40.8 µM. The GI50 (ACHN renal) was 3.57 µM, the TGI (ACHN renal) was 34.2 µM and the GI50 (BT-549 breast) was 3.65 µM. For the same compound, the TGI (BT-549 breast) was 17.5 µM, the TGI (CAKI-1 renal) was 2.15 µM and the GI50 (CCRF-CEM leukemia) was 2.2 µM. It also gave a TGI (CCRF-CEM leukemia) of 16.8 µM, a GI50 (COLO 205 colon) of 0.615 µM and a TGI (COLO 205 colon) of 6.89 µM. It also gave a GI50 (DU-145 prostate) of 8.11 µM, a TGI (DU-145 prostate) of 31.8 µM and a GI50 (EKVX NSCLC) of 21.1 µM. It also gave a TGI (EKVX NSCLC) of 60 µM, a GI50 (HCC-2998 colon) of 4.09 µM and a TGI (HCC-2998 colon) of 20.3 µM. It also gave a GI50 (HCT-116 colon) of 0.0393 µM, a TGI (HCT-116 colon) of 12 µM and a GI50 (HCT-15 colon) of 3.44 µM. For the same compound, the TGI (HCT-15 colon) was 28.5 µM, the GI50 (HL-60(TB) leukemia) was 3.9 µM and the TGI (HL-60(TB) leukemia) was 21.4 µM. For the same compound, the GI50 (HOP-62 NSCLC) was 0.84 µM, the TGI (HOP-62 NSCLC) was 21.7 µM and the GI50 (HOP-92 NSCLC) was 3.03 µM. It also gave a TGI (HOP-92 NSCLC) of 19.7 µM, a GI50 (HS 578T breast) of 4.76 µM and a TGI (HS 578T breast) of 25.6 µM. It also gave a GI50 (HT29 colon) of 1.35 µM, a TGI (HT29 colon) of 17.8 µM and a GI50 (IGROV1 ovarian) of less than 0.0227 µM. The TGI (IGROV1 ovarian) was 0.709 µM, the GI50 (K-562 leukemia) was 1.61 µM and the TGI (K-562 leukemia) was 25.4 µM. For the same compound, the GI50 (KM12 colon) was 16.9 µM, the TGI (KM12 colon) was 38.1 µM and the GI50 (LOX IMVI melanoma) was 4.26 µM. For the same compound, the TGI (LOX IMVI melanoma) was 16.1 µM, the GI50 (M14 melanoma) was 5.95 µM and the TGI (M14 melanoma) was 22.1 µM. It also gave a GI50 (MALME-3M melanoma) of 8.68 µM, a TGI (MALME-3M melanoma) of 30.5 µM and a GI50 (MCF7 breast) of 0.105 µM. For the same compound, the TGI (MCF7 breast) was 9.02 µM, the GI50 (MDA-MB-231 breast) was 6.02 µM and the TGI (MDA-MB-231 breast) was 25.6 µM. It also gave a GI50 (MDA-MB-435) of 17.1 µM, a TGI (MDA-MB-435) of 43.9 µM and a GI50 (MOLT-4 leukemia) of 19.6 µM. It also gave a TGI (MOLT-4 leukemia) of 54 µM, a GI50 (NCI-H226 lung) of less than 0.01 µM and a TGI (NCI-H226 lung) of 0.106 µM. It also gave a GI50 (NCI-H23 lung) of 3.85 µM, a TGI (NCI-H23 lung) of 21.1 µM and a GI50 (NCI-H460 lung) of 0.124 µM. The TGI (NCI-H460 lung) was 18.5 µM, the GI50 (NCI-H522 lung) was 3.21 µM and the TGI (NCI-H522 lung) was 14.8 µM. The GI50 (NCI/ADR-RES ovarian) was 8.41 µM, the TGI (NCI/ADR-RES ovarian) was 30.8 µM and the GI50 (OVCAR-3 ovarian) was 0.495 µM. The TGI (OVCAR-3 ovarian) was 8.23 µM, the GI50 (OVCAR-4 ovarian) was 0.281 µM and the TGI (OVCAR-4 ovarian) was 7.69 µM. The GI50 (OVCAR-5 ovarian) was less than 0.01 µM, the TGI (OVCAR-5 ovarian) was 0.613 µM and the GI50 (OVCAR-8 ovarian) was 4.36 µM. It also gave a TGI (OVCAR-8 ovarian) of 40 µM, a GI50 (PC-3 prostate) of 15 µM and a TGI (PC-3 prostate) of 47.1 µM. It also gave a GI50 (RPMI-8226 leukemia) of 0.636 µM, a TGI (RPMI-8226 leukemia) of 5.23 µM and a GI50 (RXF 393 renal) of 0.424 µM. For the same compound, the TGI (RXF 393 renal) was 4.44 µM, the GI50 (SF-268 CNS) was 12.3 µM and the TGI (SF-268 CNS) was 36.7 µM. It also gave a GI50 (SF-295 CNS) of 1.62 µM, a TGI (SF-295 CNS) of 32.9 µM and a GI50 (SF-539 CNS) of 11.5 µM. The TGI (SF-539 CNS) was 27.8 µM, the GI50 (SK-MEL-2 melanoma) was 0.986 µM and the TGI (SK-MEL-2 melanoma) was 6.72 µM. It also gave a GI50 (SK-MEL-28 melanoma) of 15.1 µM, a TGI (SK-MEL-28 melanoma) of 44 µM and a GI50 (SK-MEL-5 melanoma) of 4.59 µM. It also gave a TGI (SK-MEL-5 melanoma) of 18.6 µM, a GI50 (SK-OV-3 ovarian) of 2.88 µM and a TGI (SK-OV-3 ovarian) of 33.2 µM. For the same compound, the GI50 (SN12C renal) was 4.66 µM, the TGI (SN12C renal) was 21.6 µM and the GI50 (SNB-19 CNS) was 15.8 µM. The TGI (SNB-19 CNS) was 64.5 µM, the GI50 (SNB-75 CNS) was 4.52 µM and the TGI (SNB-75 CNS) was 19.9 µM. It also gave a GI50 (SR leukemia) of 15.9 µM, a TGI (SR leukemia) of 71.7 µM and a GI50 (SW-620 colon) of 0.811 µM. For the same compound, the TGI (SW-620 colon) was 22.9 µM, the GI50 (T-47D breast) was 0.0386 µM and the TGI (T-47D breast) was 0.55 µM. The GI50 (TK-10 renal) was less than 0.0115 µM, the TGI (TK-10 renal) was 0.195 µM and the GI50 (U251 CNS) was 2.62 µM. The TGI (U251 CNS) was 22.6 µM, the GI50 (UACC-257 melanoma) was 0.22 µM and the TGI (UACC-257 melanoma) was 0.517 µM. It also gave a GI50 (UACC-62 melanoma) of 0.0565 µM, a TGI (UACC-62 melanoma) of 0.601 µM and a GI50 (UO-31 renal) of 1.66 µM. The TGI (UO-31 renal) was 13 µM.
